Measured values reported in US9101726B2, “Stem cell immune modulation methods of use and apparatus” (The Board of Trustees of the University of Illinois, priority 2009, dated 2015).

How the values were obtained:
nitric oxide synthase = test: Blocking of the inhibitory effect of stem cells on lymphocytes with nitric oxide synthase inhibitor; format: cell-based
NO production in CB-SC = test: Real time assay for NO production in CB-SC; format: cell-based, human
[1] = system: CD4+CD25+CD62L+CD69+ Tregs; test: Co-culture of PHA-stimulated lymphocytes with CB-SC in presence of CPM inhibitor and B1R antagonist; format: cell-based, human; details: MGTA 10 μM, DALKD 2 μM
Excerpt: To examine the cell-cell contacting effects and CPM and B1R contribution to immune modulation of CB-SC on human Tregs, we performed co-culture experiments in the presence of CPM specific inhibitor MGTA and B1R specific inhibitor DALKD. Lymphocytes plated in trans-wells served as controls. […] Data are representative of five experiments.

allogeneic lymphocytes = test: Suppression of CB-SC on allogeneic lymphocytes in presence of inhibitors; format: cell-based, human
[2] = system: DNA methyltransferase (DNMT) activity of lymphocytes; test: Regulation of DNA methyltransferase activity of lymphocytes by CB-SC-derived NO; format: cell-based
[3] = in combination with B1R activator DAKD

NC(=NCCC[C@H](N)C(=O)O)N[N+](=O)[O-] [L-NNA, N-omega-nitro-L-arginine]
inhibitory effect of stem cells mediated by nitric oxide (NO) (nitric oxide synthase): blocking

[Des-Arg10, Leu9] kallidin [DALKD]
NO production in CB-SC (NO production in CB-SC; [3]): inhibited | positive percentage of CD4+CD25+CD62L+CD69+ Tregs [1]: decrease

CC(=N)NCc1cccc(CN)c1 [1400 W]
NO production in CB-SC (NO production in CB-SC; [3]): inhibited | suppression of CB-SC on allogeneic lymphocytes (allogeneic lymphocytes): reverse the suppression | epigenetic regulation on DNMT activity of lymphocytes by CB-SC-derived NO [2]: significantly blocked

des-Arg 10-bradykinin (KRPPGFSPF) [DAKD]
NO production in CB-SC (NO production in CB-SC; agent alone): increased
